Data on 8 compounds can be found in patent US20240150290A1, “HETEROCYCLIC P2Y14 RECEPTOR ANTAGONISTS” (priority 2021, published 2024).

A word on the chromatographic logD: it is a lipophilicity value derived from retention on a column. Low readings indicate lower lipophilicity, high ones higher lipophilicity. As a reminder, the IC50 is the concentration that inhibits the measured activity by half. Broadly, the solubility is the concentration that dissolves in the medium under given conditions. A lower solubility goes with a poorly soluble substance.

A short description of series [1]: HPLC-based lipophilicity (Log D7.4). The conditions noted are these: for chromatographic logD: pH 7.4.
The target of series [2] is T1, hP2Y14R (Homo sapiens, UniProt Q15391).
T1 construct: expressed in transfected cells; host or cells: CHO cells
T1 sequence (Q15391 1-338): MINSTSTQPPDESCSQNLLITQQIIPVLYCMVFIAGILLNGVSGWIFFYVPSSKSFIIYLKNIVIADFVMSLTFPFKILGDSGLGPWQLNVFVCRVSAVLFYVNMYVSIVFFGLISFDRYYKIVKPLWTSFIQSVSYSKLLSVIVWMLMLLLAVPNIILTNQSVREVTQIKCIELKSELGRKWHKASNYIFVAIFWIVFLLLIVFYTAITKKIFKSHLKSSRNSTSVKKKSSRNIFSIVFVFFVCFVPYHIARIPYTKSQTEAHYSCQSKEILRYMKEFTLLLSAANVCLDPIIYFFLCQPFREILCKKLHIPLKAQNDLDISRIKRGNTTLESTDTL
Put plainly: Inhibition of fluorescent antagonist binding in whole hP2Y14R-expressing CHO cells (flow cytometry).

A short description of series [3]: Aqueous solubility, pION method.
Where [4] appears, read: Table 2, whole hP2Y14R-CHO cells, 20 nM fluorescent antagonist 3, mean+SEM, n = 3-6, read-out: IC50.

Converted amounts (≈) assume the structure as drawn. Read-outs that look alike come from different tables or passages of the source. Marks after values point to notes of the source that are not given here.

Compound `CC(=O)N1C[C@H]2C[C@@H]1C[C@@H]2c1ccc(-c2cc(C(=O)O)cc3cc(-c4ccc(C(F)(F)F)cc4)ccc23)cc1` (racemic) [Compound 113, rac-4-(4-((1S,4S,5S)-2-Acetyl-2-azabicyclo[2.2.1]heptan-5-yl)phenyl)-7-(4-(trifluoromethyl)phenyl)-2-naphthoic acid] displayed a chromatographic logD in series [1] of 0.921 ± 0.034. The IC50 in series [2] (setting [4]) came to 20.4 ± 2.4 nM. Besides, the solubility in series [3] (pH 4, aqueous buffer) was determined as 0.13 ± 0.04 µg/mL (≈ 0.245 µM); in series [3] (pH 7.4, aqueous buffer), 2.53 ± 0.43 µg/mL (≈ 4.78 µM).
`CC1CNCCC1c1ccc(-c2cc(C(=O)O)cc3cc(-c4ccc(C(F)(F)F)cc4)ccc23)cc1` (mixture of isomers) [Compound 106, 4-(4-(3-Methylpiperidin-4-yl)phenyl)-7-(4-(trifluoromethyl)phenyl)-2-naphthoic acid]: the chromatographic logD in series [1] stood at 2.79 ± 0.09. Further, the half-maximal inhibitory concentration (IC50) in series [2] (setting [4]) came out at 20.9 ± 3.6 nM. Further, in series [3], the “Solubility (ug/mL) pH 4” value amounted to 1.36 ± 0.21 ug/mL and the “Solubility (ug/mL) pH 7.4” value worked out at 0.03 ± 0.02 ug/mL.
For the compound `O=C(O)c1cc(-c2ccc(C3C4CCC3CNC4)cc2)c2ccc(-c3ccc(C(F)(F)F)cc3)cc2c1` (centres unmarked) [Compound 129, 4-(4-(3-Azabicyclo[3.2.1]octan-8-yl)phenyl)-7-(4-(trifluoromethyl)phenyl)-2-naphthoic acid], in series [1] (calculated from retention factor difference between ligands and 1 (k = 3.41)), the “Log D7.4” value was 2.33 ± 0.09^f. Moreover, the IC50 in series [2] (setting [4]) was determined as 38.3 ± 2 nM. In addition, in series [3], the “Solubility (ug/mL) pH 4” value was determined as 0.38 ± 0.04 ug/mL and the “Solubility (ug/mL) pH 7.4” value was 0.13 ± 0.00 ug/mL.
The compound `O=C(O)c1cc(-c2ccc([C@@H]3CCN[C@H]4C[C@H]43)cc2)c2ccc(-c3ccc(C(F)(F)F)cc3)cc2c1` (racemic) [Compound 110, rac-4-(4-((1S,5R,6S)-2-Azabicyclo[4.1.0]heptan-5-yl)phenyl)-7-(4-(trifluoromethyl)phenyl)-2-naphthoic acid] displayed a chromatographic logD in series [1] of 2.59 ± 0.2. The IC50 in series [2] was determined as 42.4 ± 11.7 nM. The solubility was 0.1 ± 0.03 µg/mL (≈ 0.205 µM) in series [3] (pH 4, aqueous buffer) and 0.51 ± 0.23 µg/mL (≈ 1.05 µM) in series [3] (pH 7.4, aqueous buffer).
For `O=C(O)c1cc(-c2ccc(C3C4CCC3CNC4)cc2)c2ccc(-c3ccc(C(F)(F)F)cc3)cc2c1` (centres unmarked) [Compound 133, 4-(4-(3-Azabicyclo[3.2.1]octan-8-yl)phenyl)-7-(4-(trifluoromethyl)phenyl)-2-naphthoic acid], the chromatographic logD in series [1] was found to be 2.97 ± 0.02. Besides, the IC50 in series [2] amounted to 696 ± 100 nM. The solubility in series [3] (pH 4, aqueous buffer) is 0.32 ± 0.01 µg/mL (≈ 0.638 µM); in series [3] (pH 7.4, aqueous buffer) it was 0.16 ± 0.01 µg/mL (≈ 0.319 µM).
As for `O=C(O)c1cc(-c2ccc([C@@]34CCNC[C@@H]3C4)cc2)c2ccc(-c3ccc(C(F)(F)F)cc3)cc2c1` (racemic) [Compound 108, 4-(4-(3-Azabicyclo[4.1.0]heptan-6-yl)phenyl)-7-(4-(trifluoromethyl)phenyl)-2-naphthoic acid], the chromatographic logD in series [1] was determined as 2.44 ± 0.06. Further, the IC50 in series [2] was 45.5 ± 7.2 nM. Also, the solubility in series [3] (pH 4, aqueous buffer) is 1.32 ± 0.17 µg/mL (≈ 2.71 µM); in series [3] (pH 7.4, aqueous buffer), 0.17 ± 0.01 µg/mL (≈ 0.349 µM).
In series [1], `N[C@@H]1C[C@H](CO)C[C@H]1c1ccc(-c2cc(C(=O)O)cc3cc(-c4ccc(C(F)(F)F)cc4)ccc23)cc1` [Compound 136, 4-(4-((1S,2R,4R)-2-Amino-4-(hydroxymethyl)cyclopentyl)phenyl)-7-(4-(trifluoromethyl)phenyl)-2-naphthoic acid] showed a chromatographic logD of 1.06 ± 0.05. For the same compound, in series [2] (setting [4]), the half-maximal inhibitory concentration (IC50) came to 100 ± 19 nM. In addition, in series [3], the “Solubility (ug/mL) pH 4” value amounted to 3.74 ± 0.09 ug/mL and the “Solubility (ug/mL) pH 7.4” value is recorded as 0.93 ± 0.20 ug/mL.
Taken in the same sequence, the figures for `O=C(O)c1cc(-c2ccc(C34CCNCC3C4(F)F)cc2)c2ccc(-c3ccc(C(F)(F)F)cc3)cc2c1` (centres unmarked) [Compound 109, 4-(4-(7,7-Difluoro-3-azabicyclo[4.1.0]heptan-6-yl)phenyl)-7-(4-(trifluoromethyl)phenyl)-2-naphthoic acid] were 2.71 ± 0.33, 211 ± 36 nM, 1.13 ± 0.34 ug/mL and 0.25 ± 0.01 ug/mL.
